Source: ChEMBL document CHEMBL4368904 (J Med Chem, 2019)

Experiments:
[1] = target: T1, Adenosine receptor A1 (Mus musculus) (UniProt Q60612); experiment: Agonist activity at mouse A1A adenosine receptor at 10 uM after 60 mins by [35S]GTPgammaS binding assay relative to (2S,3S,4R,5R)-5-(6-amino-9H-purin-9-yl)-N-ethyl-3,4-dihydroxytetrahydrofuran-2-carboxamide; format: functional
T1 sequence (whole entry): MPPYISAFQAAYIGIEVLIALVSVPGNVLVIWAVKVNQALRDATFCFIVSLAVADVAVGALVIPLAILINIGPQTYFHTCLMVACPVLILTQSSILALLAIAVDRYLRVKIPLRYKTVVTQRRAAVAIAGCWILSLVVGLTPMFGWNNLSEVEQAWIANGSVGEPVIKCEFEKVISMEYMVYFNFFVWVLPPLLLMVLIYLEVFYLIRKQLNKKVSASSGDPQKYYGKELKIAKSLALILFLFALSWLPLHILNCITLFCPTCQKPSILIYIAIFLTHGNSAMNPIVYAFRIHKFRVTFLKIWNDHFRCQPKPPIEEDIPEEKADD

[2] = target: T2, Adenosine receptor A3 (Mus musculus) (UniProt Q61618); experiment: Agonist activity at mouse A3AR adenosine receptor at 10 uM after 60 mins by [35S]GTPgammaS binding assay relative to (2S,3S,4R,5R)-5-(6-amino-9H-purin-9-yl)-N-ethyl-3,4-dihydroxytetrahydrofuran-2-carboxamide; format: functional
T2 sequence (whole entry): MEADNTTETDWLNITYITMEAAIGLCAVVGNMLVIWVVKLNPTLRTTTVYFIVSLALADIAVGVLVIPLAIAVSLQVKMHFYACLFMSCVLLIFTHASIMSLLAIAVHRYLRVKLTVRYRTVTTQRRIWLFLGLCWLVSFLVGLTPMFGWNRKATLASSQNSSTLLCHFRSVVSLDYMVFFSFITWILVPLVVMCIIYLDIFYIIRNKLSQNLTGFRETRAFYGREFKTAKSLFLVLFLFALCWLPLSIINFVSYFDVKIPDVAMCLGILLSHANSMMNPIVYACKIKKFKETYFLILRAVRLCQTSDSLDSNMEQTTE

Mus musculus [3] = species: Mus musculus; experiment: Selectivity index, ratio of Ki for mouse A3A adenosine receptor to Ki for mouse A1A adenosine receptor expressed in CHO cell membranes after 60 mins by scintillation proximity assay
Mus musculus [4] = experiment: Induction of hypothermia in C57BL/6J mouse assessed as body temperature at 3 mg/kg, ip measured at 60 mins post dose (reference value: 36.3 +/- 0.8 degC); format: functional
Mus musculus [5] = experiment: Induction of hypothermia in C57BL/6J mouse assessed as activity counts at 3 mg/kg, ip measured at 60 mins post dose (reference value: 15.5 +/- 5.5); format: functional
[6] = Fraction unbound in human plasma at 10 uM; format: ADME, cell-free
[7] = Fraction unbound in mouse plasma at 10 uM; format: ADME, cell-free
[8] = Fraction unbound in rat plasma at 10 uM; format: ADME, cell-free
Adenosine receptor A2a [9] = target: T3, Adenosine receptor A2a (Homo sapiens, UniProt P29274); experiment: Displacement of [3H]2-[p-(2-carboxyethyl)phenylethylamino]-5-N-ethylcarboxamidoadenosine from human A2A adenosine receptor expressed in HEK293 cell membranes at 10 uM after 60 mins by scintillation proximity assay relative to adenosine 5-N-ethyluronamide
[10] = target: Adenosine receptor A2a (Mus musculus) (UniProt Q60613); experiment: Displacement of [3H]2-[p-(2-carboxyethyl)phenylethylamino]-5-N-ethylcarboxamidoadenosine from mouse A2A adenosine receptor expressed in HEK293 cell membranes at 10 uM after 60 mins by scintillation proximity assay relative to adenosine 5-N-ethyluronamide
[11] = target: T4, Adenosine receptor A3 (Homo sapiens) (UniProt P0DMS8); experiment: Displacement of [125I]N6-(4-amino-3-iodobenzyl)adenosine-5-N-methyluronamide from human A3A adenosine receptor expressed in CHO cell membranes at 10 uM after 60 mins by scintillation proximity assay relative to adenosine 5-N-ethyluronamide
T4 sequence (whole entry): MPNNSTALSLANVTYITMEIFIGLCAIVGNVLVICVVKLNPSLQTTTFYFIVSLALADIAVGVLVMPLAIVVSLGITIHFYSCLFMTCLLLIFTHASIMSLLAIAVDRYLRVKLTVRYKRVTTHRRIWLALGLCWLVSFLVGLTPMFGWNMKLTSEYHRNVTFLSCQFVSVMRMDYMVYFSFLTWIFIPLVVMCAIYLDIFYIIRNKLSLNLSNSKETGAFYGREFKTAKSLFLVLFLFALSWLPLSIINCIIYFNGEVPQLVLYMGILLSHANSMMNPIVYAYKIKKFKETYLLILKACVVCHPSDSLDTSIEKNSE

Translocator protein = Translocator protein (Homo sapiens, UniProt P30536); experiment: Inhibition of TSPO (unknown origin)
Mus musculus [12] = experiment: Induction of hypothermia in C57BL/6J mouse assessed as body temperature at 10 mg/kg, ip measured at 60 mins post dose (reference value: 36.3 +/- 0.8 degC); format: functional
Mus musculus [13] = experiment: Induction of hypothermia in C57BL/6J mouse assessed as activity counts at 10 mg/kg, ip measured at 60 mins post dose (reference value: 15.5 +/- 5.5); format: functional
Adenosine receptor A1 [14] = target: T5, Adenosine receptor A1 (Homo sapiens, UniProt P30542); experiment: Displacement of [3H]N6-R-phenylisopropyladenosine from human A1A adenosine receptor expressed in CHO cell membranes after 60 mins by scintillation proximity assay
T5 sequence (P30542 whole entry): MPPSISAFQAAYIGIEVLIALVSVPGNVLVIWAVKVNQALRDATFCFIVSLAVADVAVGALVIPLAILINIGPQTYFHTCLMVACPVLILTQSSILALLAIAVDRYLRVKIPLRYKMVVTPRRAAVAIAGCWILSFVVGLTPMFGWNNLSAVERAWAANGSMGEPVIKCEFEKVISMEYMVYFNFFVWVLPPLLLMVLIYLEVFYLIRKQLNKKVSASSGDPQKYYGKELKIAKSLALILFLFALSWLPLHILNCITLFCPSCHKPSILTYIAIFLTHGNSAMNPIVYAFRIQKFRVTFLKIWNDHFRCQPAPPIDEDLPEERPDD

Adenosine receptor A2a [15] = target: T3, Adenosine receptor A2a; experiment: Displacement of [3H]2-[p-(2-carboxyethyl)phenylethylamino]-5-N-ethylcarboxamidoadenosine from human A2A adenosine receptor expressed in HEK293 cell membranes after 60 mins by scintillation proximity assay
[16] = target: Sigma intracellular receptor 2 (Homo sapiens, UniProt Q5BJF2); experiment: Inhibition of sigma receptor 2 (unknown origin)
[17] = target: T6, Adenosine receptor A1 (Homo sapiens) (UniProt P30542); experiment: Displacement of [3H]N6-R-phenylisopropyladenosine from human A1A adenosine receptor expressed in CHO cell membranes at 10 uM after 60 mins by scintillation proximity assay relative to adenosine 5-N-ethyluronamide
T6 sequence (whole entry): T5 sequence (P30542 whole entry)

[18] = target: T2, Adenosine receptor A3 (Mus musculus); experiment: Displacement of [125I]N6-(4-amino-3-iodobenzyl)adenosine-5-N-methyluronamide from mouse A3A adenosine receptor expressed in CHO cell membranes at 10 uM after 60 mins by scintillation proximity assay relative to adenosine 5-N-ethyluronamide
Adenosine receptor A1 [19] = target: T7, Adenosine receptor A1 (Mus musculus, UniProt Q60612); experiment: Displacement of [3H]N6-R-phenylisopropyladenosine from mouse A1A adenosine receptor expressed in CHO cell membranes after 60 mins by scintillation proximity assay
T7 sequence (Q60612 whole entry): T1 sequence (whole entry)

Adenosine receptor A3 [20] = target: T8, Adenosine receptor A3 (Mus musculus, UniProt Q61618); experiment: Displacement of [125I]N6-(4-amino-3-iodobenzyl)adenosine-5-N-methyluronamide from mouse A3A adenosine receptor expressed in CHO cell membranes after 60 mins by scintillation proximity assay
T8 sequence (Q61618 whole entry): T2 sequence (whole entry)

[21] = target: 5-hydroxytryptamine receptor 2B (Homo sapiens, UniProt P41595); experiment: Inhibition of 5HT2B (unknown origin)
Adenosine receptor A3 [22] = target: T9, Adenosine receptor A3 (Homo sapiens, UniProt P0DMS8); experiment: Displacement of [125I]N6-(4-amino-3-iodobenzyl)adenosine-5-N-methyluronamide from human A3A adenosine receptor expressed in CHO cell membranes after 60 mins by scintillation proximity assay
T9 sequence (P0DMS8 whole entry): T4 sequence (whole entry)

Sigma intracellular receptor 2, sequence (Q5BJF2 whole entry): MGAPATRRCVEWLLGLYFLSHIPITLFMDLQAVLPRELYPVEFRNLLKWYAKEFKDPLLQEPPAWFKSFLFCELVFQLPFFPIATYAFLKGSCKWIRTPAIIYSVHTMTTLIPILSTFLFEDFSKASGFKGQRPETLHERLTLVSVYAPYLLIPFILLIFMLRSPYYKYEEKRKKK
Translocator protein, sequence (P30536 whole entry): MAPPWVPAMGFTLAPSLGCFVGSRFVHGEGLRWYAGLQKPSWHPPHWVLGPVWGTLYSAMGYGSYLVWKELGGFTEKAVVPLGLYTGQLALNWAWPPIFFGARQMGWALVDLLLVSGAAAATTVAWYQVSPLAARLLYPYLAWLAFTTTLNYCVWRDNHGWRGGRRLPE
Adenosine receptor A2a (Mus musculus), sequence (Q60613 whole entry): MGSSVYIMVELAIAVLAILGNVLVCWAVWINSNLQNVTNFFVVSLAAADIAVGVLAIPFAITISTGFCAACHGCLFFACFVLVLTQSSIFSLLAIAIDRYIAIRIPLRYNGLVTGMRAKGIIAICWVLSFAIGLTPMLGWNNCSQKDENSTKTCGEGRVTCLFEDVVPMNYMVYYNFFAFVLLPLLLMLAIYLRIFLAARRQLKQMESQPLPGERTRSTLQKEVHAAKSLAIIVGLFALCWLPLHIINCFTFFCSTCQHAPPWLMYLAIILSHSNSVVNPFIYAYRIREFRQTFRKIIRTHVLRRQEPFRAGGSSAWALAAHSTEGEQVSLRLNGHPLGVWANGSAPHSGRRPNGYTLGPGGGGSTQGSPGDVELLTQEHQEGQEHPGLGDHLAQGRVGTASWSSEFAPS
T3 sequence (P29274 whole entry): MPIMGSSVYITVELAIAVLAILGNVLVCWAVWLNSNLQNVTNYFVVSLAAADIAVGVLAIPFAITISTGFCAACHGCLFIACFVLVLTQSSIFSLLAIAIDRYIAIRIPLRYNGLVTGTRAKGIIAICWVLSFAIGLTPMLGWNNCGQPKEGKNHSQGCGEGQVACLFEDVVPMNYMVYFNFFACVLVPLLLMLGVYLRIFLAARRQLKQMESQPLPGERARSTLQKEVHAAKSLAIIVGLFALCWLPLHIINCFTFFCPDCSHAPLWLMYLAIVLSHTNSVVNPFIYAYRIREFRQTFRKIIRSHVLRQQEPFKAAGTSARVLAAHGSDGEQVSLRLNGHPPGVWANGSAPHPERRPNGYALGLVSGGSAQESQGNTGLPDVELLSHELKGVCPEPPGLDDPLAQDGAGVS
5-hydroxytryptamine receptor 2B, sequence (P41595 whole entry): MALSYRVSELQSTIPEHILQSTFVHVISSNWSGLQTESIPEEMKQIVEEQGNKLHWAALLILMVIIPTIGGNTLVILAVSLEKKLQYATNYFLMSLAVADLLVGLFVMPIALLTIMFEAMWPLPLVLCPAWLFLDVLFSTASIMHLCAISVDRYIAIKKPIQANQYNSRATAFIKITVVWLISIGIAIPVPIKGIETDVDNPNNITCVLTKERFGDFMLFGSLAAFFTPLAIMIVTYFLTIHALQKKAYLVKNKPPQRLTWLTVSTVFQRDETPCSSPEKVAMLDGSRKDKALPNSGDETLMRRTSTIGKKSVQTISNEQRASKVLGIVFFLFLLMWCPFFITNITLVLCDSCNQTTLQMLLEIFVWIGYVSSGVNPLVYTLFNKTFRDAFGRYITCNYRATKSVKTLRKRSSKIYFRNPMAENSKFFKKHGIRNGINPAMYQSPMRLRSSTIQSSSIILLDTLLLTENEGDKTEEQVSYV

## OC[C@H]1O[C@@H](n2cnc3c(NC(C4CCC4)C4CCC4)nc(Cl)nc32)[C@H](O)[C@@H]1O
[1]
  Emax: 90%
[2]
  Emax: 63%
Mus musculus [3]
  Ratio Ki: 1000
Mus musculus [4]
  T: 35.5 °C
Mus musculus [5]
  Activity: 13.5
[6]
  Fu: 5.81%
[7]
  Fu: 4.74%
[8]
  Fu: 4.64%

## OC[C@@]12C[C@@H]1[C@@H](n1cnc3c(N[C@H]4C[C@H]5CC[C@@H]4C5)nc(Cl)cc31)[C@H](O)[C@@H]2O
Adenosine receptor A2a [9]
  inhibition: 29%

## OC[C@@]12C[C@@H]1[C@@H](n1cnc3c(NC(C4CCC4)C4CCC4)nc(Cl)nc31)[C@H](O)[C@@H]2O
Adenosine receptor A2a [9]
  inhibition: 55%
[10]
  inhibition: 26%
[11]
  inhibition: 25%
Translocator protein
  Ki: 2930 nM
Mus musculus [12]
  T: 36.6 °C
Mus musculus [13]
  Activity: 18.4

## O[C@@H]1[C@H](O)[C@@H](CSc2ccccc2F)O[C@H]1n1cnc2c(N[C@@H]3CCC[C@H]3O)ncnc21 [GS-9667]
Adenosine receptor A1 [14]
  Ki: 12 nM
Adenosine receptor A2a [15]
  Ki: > 10000 nM

## CCOC(=O)[C@@]12C[C@@H]1[C@@H](n1cnc3c(NC(C4CCC4)C4CCC4)nc(Cl)nc31)[C@H](O)[C@@H]2O
Adenosine receptor A2a [9]
  inhibition: 57%
[16]
  Ki: 2020 nM

## O=C(NCCO)[C@@]12C[C@@H]1[C@@H](n1cnc3c(N[C@H]4C[C@H]5CC[C@@H]4C5)nc(Cl)nc31)[C@H](O)[C@@H]2O
[10]
  inhibition: 23%

## O[C@H]1[C@H](n2cnc3c(NC(C4CCC4)C4CCC4)nc(Cl)nc32)[C@H]2C[C@@]2(CSc2ccccc2F)[C@H]1O
[17]
  inhibition: 45%
Adenosine receptor A2a [9]
  inhibition: 22%
[10]
  inhibition: 20%
[16]
  Ki: 583 nM

## O[C@H]1[C@H](n2cnc3c(NC(C4CCC4)C4CCC4)nc(Cl)nc32)[C@H]2C[C@@]2(CCl)[C@H]1O
Adenosine receptor A2a [9]
  inhibition: 17%
[10]
  inhibition: 20%
[16]
  Ki: 349 nM
Translocator protein
  Ki: 2890 nM
Mus musculus [12]
  T: 36.5 °C
Mus musculus [13]
  Activity: 18.9

## O[C@H]1[C@H](n2cnc3c(NC(C4CCC4)C4CCC4)ncnc32)[C@H]2C[C@@]2(CCl)[C@H]1O
Adenosine receptor A2a [9]
  inhibition: 38%
[11]
  inhibition: 49%
[16]
  Ki: 1170 nM
Translocator protein
  Ki: 2020 nM
Mus musculus [4]
  T: 35.9 °C
Mus musculus [5]
  Activity: 14.8

## COC(=O)c1ncn([C@H]2[C@H](O)[C@H](O)[C@]3(CO)C[C@H]23)n1
[17]
  inhibition: 6%
Adenosine receptor A2a [9]
  inhibition: 14%
[11]
  inhibition: 22%
[18]
  inhibition: 15%
[16]
  Ki: 1720 nM

## O[C@@H]1[C@H](O)[C@@H](CCl)O[C@H]1n1cnc2c(NC(C3CCC3)C3CCC3)ncnc21
[16]
  Ki: 662 nM
Translocator protein
  Ki: 3980 nM
Mus musculus [12]
  T: 35.8 °C
Mus musculus [13]
  Activity: 20.5

## OC[C@H]1O[C@@H](n2cnc3c(N[C@H]4C[C@H]5CC[C@@H]4C5)ncnc32)[C@H](O)[C@@H]1O
Adenosine receptor A1 [19]
  Ki: 0.14 nM
Adenosine receptor A3 [20]
  Ki: 424 nM

## NC(=O)c1ncn([C@@H]2O[C@H](CO)[C@@H](O)[C@H]2O)n1
Adenosine receptor A2a [9]
  inhibition: 23%
[11]
  inhibition: 16%
[18]
  inhibition: 0%

## O[C@H]1[C@H](n2cnc3c(N[C@H]4C[C@H]5CC[C@@H]4C5)nc(Cl)nc32)[C@H]2C[C@@]2(CCl)[C@H]1O
Adenosine receptor A2a [9]
  inhibition: 54%
[10]
  inhibition: 15%
[1]
  Emax: 123%
[2]
  Emax: 50%
Mus musculus [3]
  Ratio Ki: 270
Mus musculus [4]
  T: 36.6 °C
Mus musculus [5]
  Activity: 16.8
[6]
  Fu: 4.04%
[7]
  Fu: 2.95%
[8]
  Fu: 2.53%

## CNC(=O)[C@]12C[C@@H]1[C@@H](n1cnc3c(NC4CCCC4)nc(Cl)nc31)[C@H](O)[C@@H]2O
Adenosine receptor A1 [19]
  Ki: 0.68 nM
Adenosine receptor A3 [20]
  Ki: 3.46 nM
[21]
  Ki: 12 nM

## O[C@@H]1[C@H](O)[C@@H](CCl)O[C@H]1n1cnc2c(NC3C[C@H]4CC[C@@H]3C4)ncnc21 (mixture of isomers)
Adenosine receptor A2a [15]
  Ki: 1340 nM
Adenosine receptor A3 [22]
  Ki: 1290 nM
Adenosine receptor A3 [20]
  Ki: 2410 nM
Mus musculus [4]
  T: 32.2 °C
Mus musculus [5]
  Activity: 2.8

## Nc1ncnc2c1ncn2[C@@H]1O[C@H](C(=O)O)[C@@H](O)[C@H]1O [5'-CARBOXY ADENOSINE]
[17]
  inhibition: 24%
Adenosine receptor A2a [9]
  inhibition: 11%
[11]
  inhibition: 32%
[16]
  Ki: 796 nM
